From patent US12529108B2, “Compositions, methods and kits for characterizing and screening for small cell ovarian carcinoma” (THE TRANSLATIONAL GENOMICS RESEARCH INSTITUTE, priority 2014, dated 2026) come the findings set out here.

Molecules are shown by their SMILES.

Assay [1] relates to SMARCA4/A2 negative SCCOHT cell lines BIN67 and SCCOHT1. Briefly: High-throughput screen of epigenetic agents, cell viability (CellTiter Glo). The format is cell-based, human. The note with it: 3-fold 20-point dilution series, viability 3 days after treatment (FIG. 21). As to the method:
FIG. 21 depicts SCCOHT sensitivity to epigenetic agents. Cells plated at 1,000 cells/well in a 384-well plate were treated with indicated agents using a serial 3-fold 20-point dilution series. Cell viability was measured 3 days after treatment using CellTiter Glo. Surviving cells were measured and normalized to DMSO-treated cells and IC50s calculated by curve-fitting.
Thus, as in MRTs, targeting epigenetic modifications may have therapeutic potential in SCCOHT. To evaluate the activity of a panel of epigenetic drugs in SCCOHT we performed high-throughput screening in the SMARCA4/A2 negative SCCOHT cell lines BIN67 and SCCOHT1. Effects of epigenetic modifiers from all main classes of epigenetic agents—modifiers of acetylated histones as well as inhibitors of DNA methylation, histone methyltransferases and HDACs—are shown in FIG. 21. BIN67 and SCCOHT1 cells are […] sensitive to many of these agents. […] We have found HDAC2 to be overexpressed in most SCCOHTs including these cell lines.
A general note: Cellular ATP, detected with luciferase, serves as a proxy for viable cell number.

The next assay deals with SMARCA2 protein. Briefly: SMARCA2 protein level by Western blotting after HDAC inhibitor treatment. The note with it: BIN67 and SCCOHT1 cells; Western blotting (FIG. 18B). The format is cell-based, human. An excerpt: FIGS. 18A-18D depict characterization of SMARCA4/A2 expression in SCCOHT cell lines. […] FIGS. 18C and 18D show Lentivirus-based re-expression of SMARCA4/A2 in BIN67 cells inhibits cell growth.
To understand the roles of these two mutually exclusive ATPases in SCCOHT etiology, we will elucidate the epigenetic consequences of re-expression of one or both SWI/SNF complex ATPases in SCCOHTs.
In general terms: A western blot detects proteins with antibodies after separation by electrophoresis.

The test system of the next assay is BIN67. Briefly: Pilot compound screen (LOPAC and Prestwick libraries), cell viability (CellTiter Glo). Conditions: 5 μM and 10 μM; viability at 72 hours post-treatment; shared hits from HepG2 counterscreen filtered out. The format is cell-based, human. An excerpt: The BIN67 cell line has been characterized for optimal growth conditions, doubling time, cell seeding density, FBS concentration, siRNA transfection conditions (transfection reagent and lipid-to-siRNA ratio to achieve transfection efficiency of 95% or higher), and DMSO tolerance. We have also banked large numbers of BIN67 cells from the same passage to facilitate future screening. Furthermore, we have performed pilot compound and RNAi screens on this cell line.
In BIN67 we screened the LOPAC and Prestwick chemical libraries, diverse libraries of small molecules with good bioavailability and toxicity profiles. These libraries contain 2,400 drugs with subsets of FDA-approved drugs and pharmacologically active compounds. We completed 2 runs in BIN67 with duplicates at concentrations of 5 μM and 10 μM and measured cell viability at 72 hours post-treatment with CellTiter Glo (Promega). The high quality screen was exceeded NIH standards with covariance <5% and Z′-factor 0.83-0.91. […] Notable classes of lead compounds enriched in these hits included 9 cardiac glycosides, 6 tubulin polymerization inhibitors, 2 topoisomerase II inhibitors, and 2 Src/FGFR family kinase inhibitors. In particular, the tubulin inhibitors vincristine and […] are currently used clinically for SCCOHT patients. This serves as a positive confirmation for the robustness and reliability of our screen.

The test system of the next assay is SCCOHT cell lines. The experiment in a line: FGFR compounds profiling in a drug dose-dependent manner, cell viability. The format is cell-based. The note with it: Homo sapiens; both SCCOHT cell lines (FIG. 22B). Here is the method:
FIGS. 22A and 22B show the characterization of FGFR and MERTK inhibition in BIN67 cell line. […] Four unique sequences per target were tested; GFP sequence is used as a negative scramble control. Cell viability was measured using CellTiter Glo.
Our finding of FGFRs as synthetic lethal targets, in both our HT-RNAi and compound pilot screens, in SCCOHT is novel. […] As we also identified FGFR inhibitors in our pilot compound screen, we further tested 8 FGFR inhibitors in vitro.

In the case of `C/C=C1\NC(=O)[C@H]2CSSCC/C=C/[C@H](CC(=O)N[C@H](C(C)C)C(=O)N2)OC(=O)[C@H](C(C)C)NC1=O` [Rombidepsin, Romidepsin], in assay [1], the “sensitivity of SCCOHT cells to epigenetic agents” value is on record as “most sensitive”.
With `CC(/C=C/C(=O)NO)=C\[C@@H](C)C(=O)c1ccc(N(C)C)cc1` [trichostatin A], the “upregulation of SMARCA2 protein” value with SMARCA2 protein is “dose-dependent upregulation”.
Regarding `COc1cc([C@@H]2c3cc4c(cc3[C@@H](O[C@@H]3O[C@@H]5CO[C@@H](C)O[C@H]5[C@H](O)[C@H]3O)[C@H]3COC(=O)[C@H]23)OCO4)cc(OC)c1O` [etoposide], in the assay with BIN67, the “hypersensitivity (screen hit) of BIN67” value is reported as “hypersensitivity”.
As for `CC[C@]1(O)C[C@H]2CN(CCc3c([nH]c4ccccc34)[C@@](C(=O)OC)(c3cc4c(cc3OC)N(C=O)[C@H]3[C@@](O)(C(=O)OC)[C@H](OC(C)=O)[C@]5(CC)C=CCN6CC[C@]43[C@@H]65)C2)C1` [vincristine], in the assay on BIN67, the “hypersensitivity (screen hit) of BIN67” value is given as “hypersensitivity”.
Turning to `Cc1ccc(C(=O)Nc2ccc(CN3CCN(C)CC3)c(C(F)(F)F)c2)cc1C#Cc1cnc2cccnn12` [ponatinib], the IC50 (usually the concentration that inhibits the measured activity by half) with SCCOHT cell lines was 5 to 333 nM.
